Earlier results on 1 compound are cited in EP2166560A1, “Maldi matrices” (Max-Planck-Gesellschaft zur Förderung der Wissenschaften …, priority 2008, dated 2010).

The conditions of this data set: representative medium strong acid.

As for `CCCCCCCCCCCCCCCCCC(=O)O` [stearic acid], the pK is recorded as 10.15.
